PubChem BioAssay (NCI)
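Where inhibition never reached the appropriate level, the endpoint shown equals the highest concentration tested. Otherwise, values were interpolated linearly from a five-concentration, 48-hour dose response in 96-well plates. GI50 marks 50% less growth. TGI: total growth inhibition.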

Assays:
Test in all cases: NCI anticancer screen, dose series, 48 h
[1] = test system: OVCAR-5 ovarian
[2] = test system: OVCAR-3 ovarian
[3] = test system: CCRF-CEM leukemia
[4] = test system: SN12C renal
[5] = test system: COLO 205 colon
[6] = test system: IGROV1 ovarian
[7] = test system: UACC-257 melanoma
[8] = test system: MCF7 breast
[9] = test system: U251 CNS
[10] = test system: OVCAR-8 ovarian
[11] = test system: NCI-H460 lung
[12] = test system: SK-OV-3 ovarian
[13] = test system: OVCAR-4 ovarian
[14] = test system: HS 578T breast
[15] = test system: NCI-H226 lung
[16] = test system: NCI-H522 lung
[17] = test system: NCI-H23 lung
[18] = test system: SF-539 CNS
[19] = test system: CAKI-1 renal
[20] = test system: SK-MEL-28 melanoma
[21] = test system: MDA-MB-435
[22] = test system: NCI/ADR-RES ovarian
[23] = test system: LOX IMVI melanoma
[24] = test system: A498 renal
[25] = test system: EKVX NSCLC
[26] = test system: K-562 leukemia
[27] = test system: DU-145 prostate
[28] = test system: HT29 colon
[29] = test system: T-47D breast
[30] = test system: SF-295 CNS
[31] = test system: UO-31 renal
[32] = test system: KM12 colon
[33] = test system: HCC-2998 colon
[34] = test system: ACHN renal
[35] = test system: RXF 393 renal
[36] = test system: SK-MEL-5 melanoma
[37] = test system: HOP-92 NSCLC
[38] = test system: SK-MEL-2 melanoma
[39] = test system: 786-0 renal
[40] = test system: SW-620 colon
[41] = test system: HOP-62 NSCLC
[42] = test system: TK-10 renal
[43] = test system: MALME-3M melanoma
[44] = test system: SR leukemia
[45] = test system: SNB-19 CNS
[46] = test system: PC-3 prostate
[47] = test system: SNB-75 CNS
[48] = test system: HCT-116 colon
[49] = test system: HL-60(TB) leukemia
[50] = test system: BT-549 breast
[51] = test system: SF-268 CNS
[52] = test system: MDA-MB-231 breast
[53] = test system: MOLT-4 leukemia
[54] = test system: A549 NSCLC
[55] = test system: HCT-15 colon
[56] = test system: RPMI-8226 leukemia
[57] = test system: M14 melanoma
[58] = test system: UACC-62 melanoma

## CC(C)(O)CC(=O)NCCn1ccc2ncnc(Nc3ccc(Oc4cccc(C(F)(F)F)c4)c(Cl)c3)c21
[1]
  GI50: 2550 nM
  TGI: > 10000 nM
[2]
  GI50: 2420 nM
  TGI: > 10000 nM
[3]
  GI50: 3260 nM
  TGI: > 10000 nM
[4]
  GI50: 2000 nM
  TGI: > 10000 nM
[5]
  GI50: 3500 nM
  TGI: > 10000 nM
[6]
  GI50: 1260 nM
  TGI: > 10000 nM
[7]
  TGI: > 10000 nM
[8]
  GI50: 2980 nM
  TGI: > 10000 nM
[9]
  GI50: 3450 nM
  TGI: > 10000 nM
[10]
  GI50: 3650 nM
  TGI: > 10000 nM
[11]
  GI50: 3370 nM
  TGI: > 10000 nM
[12]
  GI50: 284 nM
  TGI: > 10000 nM
[13]
  GI50: 5220 nM
  TGI: > 10000 nM
[14]
  GI50: 4600 nM
  TGI: > 10000 nM
[15]
  GI50: 3190 nM
  TGI: > 10000 nM
[16]
  GI50: 535 nM
  TGI: > 10000 nM
[17]
  GI50: 3760 nM
  TGI: > 10000 nM
[18]
  GI50: 4030 nM
  TGI: > 10000 nM
[19]
  GI50: 1800 nM
  TGI: > 10000 nM
[20]
  GI50: 4430 nM
  TGI: > 10000 nM
[21]
  GI50: 3980 nM
  TGI: > 10000 nM
[22]
  GI50: 2580 nM
  TGI: > 10000 nM
[23]
  GI50: 2340 nM
  TGI: > 10000 nM
[24]
  GI50: 2900 nM
  TGI: > 10000 nM
[25]
  GI50: 415 nM
  TGI: > 10000 nM
[26]
  GI50: 4540 nM
  TGI: > 10000 nM
[27]
  GI50: 2960 nM
  TGI: > 10000 nM
[28]
  GI50: 3830 nM
  TGI: > 10000 nM
[29]
  GI50: 641 nM
  TGI: > 10000 nM
[30]
  GI50: 3790 nM
  TGI: > 10000 nM
[31]
  GI50: 1120 nM
  TGI: > 10000 nM
[32]
  GI50: 3670 nM
  TGI: > 10000 nM
[33]
  GI50: 3850 nM
  TGI: > 10000 nM
[34]
  GI50: 1150 nM
  TGI: > 10000 nM
[35]
  GI50: 1870 nM
  TGI: 4310 nM
[36]
  GI50: 2840 nM
  TGI: > 10000 nM
[37]
  GI50: 1630 nM
  TGI: > 10000 nM
[38]
  GI50: 8660 nM
  TGI: > 10000 nM
[39]
  GI50: 4010 nM
  TGI: > 10000 nM
[40]
  GI50: 3320 nM
  TGI: > 10000 nM
[41]
  GI50: 4700 nM
  TGI: > 10000 nM
[42]
  GI50: 363 nM
  TGI: > 10000 nM
[43]
  TGI: > 10000 nM
[44]
  GI50: 2140 nM
  TGI: > 10000 nM
[45]
  GI50: 3910 nM
  TGI: > 10000 nM
[46]
  GI50: 3460 nM
  TGI: > 10000 nM
[47]
  GI50: 4720 nM
  TGI: > 10000 nM
[48]
  GI50: 2920 nM
  TGI: > 10000 nM
[49]
  GI50: 2880 nM
  TGI: > 10000 nM
[50]
  GI50: 5520 nM
  TGI: > 10000 nM
[51]
  GI50: 3500 nM
  TGI: > 10000 nM
[52]
  GI50: 4530 nM
  TGI: > 10000 nM
[53]
  GI50: 3540 nM
  TGI: > 10000 nM
[54]
  GI50: 3050 nM
  TGI: > 10000 nM
[55]
  GI50: 2500 nM
  TGI: > 10000 nM
[56]
  GI50: 4680 nM
  TGI: > 10000 nM
[57]
  GI50: 4170 nM
  TGI: > 10000 nM
[58]
  GI50: 2960 nM
  TGI: > 10000 nM

## O=[N+]([O-])c1cccc([As]=[As]c2cccc([N+](=O)[O-])c2)c1 (stereo unspecified)
[1]
  GI50: 89.1 nM
  TGI: 216 nM
[2]
  GI50: 49.9 nM
  TGI: 160 nM
[3]
  GI50: 27.3 nM
  TGI: 112 nM
[4]
  GI50: 110 nM
  TGI: 239 nM
[5]
  GI50: 66.3 nM
  TGI: 180 nM
[6]
  GI50: 58.7 nM
  TGI: 211 nM
[7]
  GI50: 122 nM
  TGI: 252 nM
[8]
  GI50: 32.7 nM
  TGI: 137 nM
[9]
  GI50: 103 nM
  TGI: 220 nM
[10]
  GI50: 141 nM
  TGI: 284 nM
[11]
  GI50: 225 nM
  TGI: 500 nM
[12]
  GI50: 177 nM
  TGI: 317 nM
[13]
  GI50: 92.1 nM
  TGI: 308 nM
[14]
  GI50: 98 nM
  TGI: 498 nM
[15]
  GI50: 143 nM
  TGI: 287 nM
[16]
  GI50: 15.4 nM
  TGI: 30.4 nM
[17]
  GI50: 182 nM
  TGI: 384 nM
[18]
  GI50: 73.7 nM
  TGI: 201 nM
[19]
  GI50: 137 nM
  TGI: 281 nM
[20]
  GI50: 136 nM
  TGI: 305 nM
[21]
  GI50: 122 nM
  TGI: 271 nM
[22]
  GI50: 182 nM
  TGI: 447 nM
[23]
  GI50: 45.2 nM
  TGI: 146 nM
[24]
  GI50: 83.5 nM
  TGI: 231 nM
[26]
  GI50: 32.7 nM
  TGI: 106 nM
[27]
  GI50: 163 nM
  TGI: 309 nM
[28]
  GI50: 159 nM
  TGI: 329 nM
[29]
  GI50: 35.8 nM
  TGI: 164 nM
[30]
  GI50: 178 nM
  TGI: 340 nM
[31]
  GI50: 119 nM
  TGI: 255 nM
[32]
  GI50: 172 nM
  TGI: 343 nM
[33]
  GI50: 130 nM
  TGI: 275 nM
[34]
  GI50: 111 nM
  TGI: 242 nM
[35]
  GI50: 89.8 nM
  TGI: 230 nM
[36]
  GI50: 162 nM
  TGI: 324 nM
[37]
  GI50: 43.3 nM
  TGI: 173 nM
[38]
  GI50: 130 nM
  TGI: 272 nM
[39]
  GI50: 96.1 nM
  TGI: 222 nM
[40]
  GI50: 46 nM
  TGI: 195 nM
[41]
  GI50: 159 nM
  TGI: 301 nM
[42]
  GI50: 132 nM
  TGI: 266 nM
[43]
  GI50: 56.2 nM
  TGI: 155 nM
[44]
  GI50: 27.5 nM
  TGI: 100 nM
[45]
  GI50: 145 nM
  TGI: 279 nM
[46]
  GI50: 147 nM
  TGI: 297 nM
[47]
  GI50: 61.1 nM
  TGI: 206 nM
[48]
  GI50: 62.7 nM
  TGI: 181 nM
[50]
  GI50: 76.5 nM
  TGI: 204 nM
[51]
  GI50: 81.9 nM
  TGI: 228 nM
[52]
  GI50: 77.6 nM
  TGI: 212 nM
[53]
  GI50: 104 nM
  TGI: 353 nM
[54]
  GI50: 178 nM
  TGI: 351 nM
[55]
  GI50: 43.7 nM
  TGI: 174 nM
[56]
  GI50: 49.5 nM
  TGI: 180 nM
[57]
  GI50: 136 nM
  TGI: 287 nM
[58]
  GI50: 88.5 nM
  TGI: 212 nM
